Assay results as given in patent US11395828B2, “Spironolactone aqueous compositions” (CMP DEVELOPMENT LLC, priority 2015, dated 2022).
In brackets after ≈: the same amount, converted by molar mass.

Key:
[1] = sorbic acid and sorbate; cited from earlier work
[2] = Dissolution, USP <711>; format: physicochemical; conditions: USP <711> dissolution study
Method: Dissolution was measured in a manner consistent with USP <711> reporting the amount of dissolved spironolactone as a percent of labeled content with an associated relative standard devision (“RSD”).

[3] = Particle size by laser diffraction; format: physicochemical; conditions: spironolactone solid prior to composition manufacture
Method: Particle size measurements were performed on spironolactone (prior to composition manufacture) and on the particulate matter present in the compositions described herein by laser diffraction. The reported particle sizes D(v, 0.1), D(v, 0.5), and D(v, 0.9) relate to the mass median diameter (in μm) of the volume of distribution of the given particles. […] Alternatively, particle size can be estimated using optical microscopy.

[4] = reported in Pramar et al.; cited from earlier work
[5] = Pramar et al.; cited from earlier work
[6] = added to a standard therapy for adults with severe heart failure; cited from earlier work

SMILES | labeled content dissolved at 5-minutes [2] | particle size D(v, 0.5) [3] | particle size D(v, 0.9) [3] | also measured
C/C=C/C=C/C(=O)O [sorbic acid] | – | – | – | equilibrium pKa-value [1]: about 4.8
CC(=O)S[C@@H]1CC2=CC(=O)CC[C@]2(C)[C@H]2CC[C@@]3(C)[C@@H](CC[C@@]34CCC(=O)O4)[C@H]12 [unmicronized spironolactone, spironolactone] | about 50 % of labeled content | 18.3 µm | 35.5 µm | particle size D(v, 0.1) [3]: 7.47 µm
CC(=O)S[C@@H]1CC2=CC(=O)CC[C@]2(C)[C@H]2CC[C@@]3(C)[C@@H](CC[C@@]34CCC(=O)O4)[C@H]12 [micronized spironolactone, spironolactone] | about 90 % of labeled content | about 3.64 m | about 9.42 m | –
CC(=O)S[C@@H]1CC2=CC(=O)CC[C@]2(C)[C@H]2CC[C@@]3(C)[C@@H](CC[C@@]34CCC(=O)O4)[C@H]12 [Spironolactone] | – | – | – | aqueous solubility [4]: 28 µg/mL (≈ 67.2 µM); pH at which spironolactone exhibits maximum stability [5]: 4.5; reduction in mortality [6]: 30%
